Data from patent US11571423B2, “Small molecule modulators of human sting” (Curadev Pharma Limited, priority 2017, dated 2023).
Where a name gives a salt, the structure may show the parent alone. Read-outs that look alike come from different tables or passages of the source.

Tests used:
hSTING(R232) = hSTING(R232) (Homo sapiens, UniProt Q86WV6, H232R); assay: Luciferase reporter assay in HEK293T-hSTING-Luciferase cells, R232 (wild type) human STING; type: cell-based; details: 20 hr stimulation
Outline: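 Clonal HEK293T cells stably expressing STING from a pUNO-1 plasmid plus an ISRE/ISG54-driven secreted luciferase reporter; 5×10^5 cells stimulated with compound for 20 hr. Supernatant luciferase read by luminescence, giving fold-induction over baseline and EC50.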

[1] = target: cynomolgus monkey STING protein (Macaca fascicularis, UniProt A0A2R3XZA6); assay: Luciferase reporter assay, cynomolgus monkey STING overexpressed in HEK293T cells; type: cell-based
Method: 5×10^5 clonally selected HEK293T-hSTING-Luciferase cells were seeded in 384-well plates in growth medium and stimulated with novel compounds. After 20 hr of stimulation supernatant were removed and secretary reporter gene activity were measured using the Quanti-Luc detection system (Invivogen) on a Spectramax i3X luminometer.
In the tables below, EC50 value ranges for exemplary compounds are given.
Selected compounds were further tested against cynomolgus monkey STING protein overexpressed in HEK293T cells.

[2] = read-out: R232 human activity (EC50 range)
[3] = cynomolgus monkey STING overexpressed in HEK293T cells, read-out: Cynomolgus monkey STING activity (EC50 range)

Chain of hSTING(R232) (Q86WV6 whole entry H232R): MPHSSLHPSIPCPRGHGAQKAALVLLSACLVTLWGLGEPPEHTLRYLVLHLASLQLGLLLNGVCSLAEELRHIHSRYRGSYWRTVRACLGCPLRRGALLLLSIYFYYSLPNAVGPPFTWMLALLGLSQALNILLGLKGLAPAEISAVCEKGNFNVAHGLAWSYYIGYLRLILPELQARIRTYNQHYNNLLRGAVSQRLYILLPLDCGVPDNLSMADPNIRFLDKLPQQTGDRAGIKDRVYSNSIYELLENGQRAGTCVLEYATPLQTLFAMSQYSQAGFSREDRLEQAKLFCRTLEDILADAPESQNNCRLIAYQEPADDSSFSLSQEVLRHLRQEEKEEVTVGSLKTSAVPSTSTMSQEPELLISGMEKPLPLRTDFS
Chain of cynomolgus monkey STING protein (A0A2R3XZA6 entry or part of it): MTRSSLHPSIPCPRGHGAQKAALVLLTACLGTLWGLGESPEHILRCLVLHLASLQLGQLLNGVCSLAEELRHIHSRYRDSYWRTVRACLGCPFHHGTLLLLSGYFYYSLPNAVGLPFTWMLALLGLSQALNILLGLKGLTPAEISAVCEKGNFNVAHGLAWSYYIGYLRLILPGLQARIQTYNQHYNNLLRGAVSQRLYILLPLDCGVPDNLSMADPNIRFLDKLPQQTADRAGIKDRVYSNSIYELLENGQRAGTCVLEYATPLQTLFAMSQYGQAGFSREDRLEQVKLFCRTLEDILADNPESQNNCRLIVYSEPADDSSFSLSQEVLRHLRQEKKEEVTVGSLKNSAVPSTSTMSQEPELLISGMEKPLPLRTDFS

SMILES	EC50 (hSTING(R232); [2]) [nM]	EC50 [1, 3] [nM]	EC50 (hSTING(R232); R232 human activity (EC50 range)) [nM]	EC50 [1] [nM]
C[C@H]1c2ccc(C(=O)NCc3c(F)cc(F)cc3F)cc2N(Cc2c(OCCO)ccc(F)c2F)C(=O)N1C [Example 254, (S)-1-(2,3-difluoro-6-(2-hydroxyethoxy)benzyl)-3,4-dimethyl-2-oxo-N-(2,4,6-trifluorobenzyl)-1,2,3,4-tetrahydroquinazoline-7-carboxamide]	< 1000	1000 to 10000	–	–
C[C@H]1c2ccc(C(=O)NCc3c(F)cc(F)cc3F)cc2N(Cc2c(F)cc(F)cc2OCCCO)C(=O)N1C [Example 275, (S)-1-(2,4-difluoro-6-(3-hydroxypropoxy)benzyl)-3,4-dimethyl-2-oxo-N-(2,4,6-trifluorobenzyl)-1,2,3,4-tetrahydroquinazoline-7-carboxamide]	< 1000	> 10000	–	–
Cc1cccc(CN2C(=O)N(C)[C@@H](C)c3ccc(C(=O)NCc4c(F)cc(F)cc4F)cc32)c1F [Example 168, (S)-1-(2-fluoro-3-methylbenzyl)-3,4-dimethyl-2-oxo-N-(2,4,6-trifluorobenzyl)-1,2,3,4-tetrahydroquinazoline-7-carboxamide]	< 1000	< 1000	–	–
COc1cc(F)c(CN2C(=O)N(C)[C@@H](C)c3ccc(C(=O)NCc4c(F)cc(F)cc4F)cc32)c(F)c1 [Example 79, (S)-1-(2,6-Difluoro-4-methoxybenzyl)-3,4-dimethyl-2-oxo-N-(2,4,6-trifluorobenzyl)-1,2,3,4-tetrahydroquinazoline-7-carboxamide]	< 1000	< 1000	–	–
C[C@H]1c2ccc(C(=O)NCc3c(F)cc(F)cc3F)cc2N(Cc2c(F)cc(OCCOC(=O)CN)cc2F)C(=O)N1C [Example 187, (S)-2-(4-((3,4-dimethyl-2-oxo-7-((2,4,6-trifluorobenzyl)carbamoyl)-3,4-dihydroquinazolin-1(2H)-yl)methyl)-3,5-difluorophenoxy)ethyl 2-aminoacetate]	< 1000	< 1000	–	–
C[C@H]1c2ccc(C(=O)NCc3c(F)cc(F)cc3F)cc2N(Cc2c(F)cc(OC[C@H](O)CO)cc2F)C(=O)N1C [Example 146, (S)-1-(4-((R)-2,3-Dihydroxypropoxy)-2,6-difluorobenzyl)-3,4-dimethyl-2-oxo-N-(2,4,6-trifluorobenzyl)-1,2,3,4-tetrahydroquinazoline-7-carboxamide]	< 1000	< 1000	–	–
Cc1ncc(Cl)c(CN2C(=O)N(C)C(C)c3ccc(C(=O)NCc4c(F)cc(F)cc4F)cc32)c1F (stereo not drawn) [Example 176, 1-((5-chloro-3-fluoro-2-methylpyridin-4-yl)methyl)-3,4-dimethyl-2-oxo-N-(2,4,6-trifluorobenzyl)-1,2,3,4-tetrahydroquinazoline-7-carboxamide]	< 1000	< 1000	–	–
C[C@H]1c2ccc(C(=O)NCc3c(F)cc(F)cc3F)cc2N(Cc2cc(OCCCO)ccc2F)C(=O)N1C [Example 271, (S)-1-(2-fluoro-5-(3-hydroxypropoxy)benzyl)-3,4-dimethyl-2-oxo-N-(2,4,6-trifluorobenzyl)-1,2,3,4-tetrahydroquinazoline-7-carboxamide]	< 1000	1000 to 10000	–	–
COc1cc(F)c(CN2C(=O)N(C)[C@@H](C)c3ccc(C(=O)NCc4c(F)cc(F)cc4F)cc32)cc1OC [Example 265, (S)-1-(2-fluoro-4,5-dimethoxybenzyl)-3,4-dimethyl-2-oxo-N-(2,4,6-trifluorobenzyl)-1,2,3,4-tetrahydroquinazoline-7-carboxamide]	< 1000	< 1000	–	–
CC1c2ccc(C(=O)NCc3c(F)cc(F)cc3F)cc2N(Cc2ccccc2F)C(=O)N1C (stereo not drawn) [Example 202, 1-(2-fluorobenzyl)-3,4-dimethyl-2-oxo-N-(2,4,6-trifluorobenzyl)-1,2,3,4-tetrahydroquinazoline-7-carboxamide]	< 1000	< 1000	–	–
C[C@H]1c2ccc(C(=O)NCc3c(F)cc(F)cc3F)cc2N(Cc2c(F)cc(OCCN3CCOCC3)cc2F)C(=O)N1C [Example 291, (S)-1-(2,6-difluoro-4-(2-morpholinoethoxy)benzyl)-3,4-dimethyl-2-oxo-N-(2,4,6-trifluorobenzyl)-1,2,3,4-tetrahydroquinazoline-7-carboxamide]	< 1000	< 1000	–	–
C[C@H]1c2ccc(C(=O)NCc3c(F)cc(F)cc3F)cc2N(Cc2c(F)ccc(O)c2F)C(=O)N1C [Example 255, (S)-1-(2,6-difluoro-3-hydroxybenzyl)-3,4-dimethyl-2-oxo-N-(2,4,6-trifluorobenzyl)-1,2,3,4-tetrahydroquinazoline-7-carboxamide]	< 1000	< 1000	–	–
C[C@H]1c2ccc(C(=O)NCc3c(F)cc(F)cc3F)cc2N(Cc2cc(N)ccc2F)C(=O)N1C [Example 273, (S)-1-(5-amino-2-fluorobenzyl)-3,4-dimethyl-2-oxo-N-(2,4,6-trifluorobenzyl)-1,2,3,4-tetrahydroquinazoline-7-carboxamide]	< 1000	1000 to 10000	–	–
C[C@H]1c2ccc(C(=O)NCc3c(F)cc(F)cc3F)cc2N(Cc2c(F)cncc2F)C(=O)N1C [Example 295, (S)-1-((3,5-difluoropyridin-4-yl)methyl)-3,4-dimethyl-2-oxo-N-(2,4,6-trifluroobenzyl)-1,2,3,4-tetrahydroquinazoline-7-carboxamide]	< 1000	< 1000	–	–
CNCCN(C)C(=O)Oc1ccc(F)c(CN2C(=O)N(C)[C@@H](C)c3ccc(C(=O)NCc4c(F)cc(F)cc4F)cc32)c1Cl [Example 300, (S)-2-chloro-3-((3,4-dimethyl-2-oxo-7-((2,4,6-trifluorobenzyl)carbamoyl)-3,4-dihydroquinazolin-1(2H)-yl)methyl)-4-fluorophenyl-methyl(2-(methylamino)ethyl)carbamate hydrochloride]	–	–	< 1000	< 1000
COc1cc(F)c(F)c(CN2C(=O)N(C)[C@@H](C)c3ccc(C(=O)NCc4c(F)cc(F)cc4F)cc32)c1 [Example 270, (S)-1-(2,3-difluoro-5-methoxybenzyl)-3,4-dimethyl-2-oxo-N-(2,4,6-trifluorobenzyl)-1,2,3,4-tetrahydroquinazoline-7-carboxamide]	< 1000	< 1000	–	–
COc1ccc(F)c(CN2C(=O)N(C)[C@@H](C)c3ccc(C(=O)NCc4c(F)cc(F)cc4F)cc32)c1 [Example 183, (S)-1-(2-fluoro-5-methoxybenzyl)-3,4-dimethyl-2-oxo-N-(2,4,6-trifluorobenzyl)-1,2,3,4-tetrahydroquinazoline-7-carboxamide]	< 1000	< 1000	–	–
C[C@H]1c2ccc(C(=O)NCc3c(F)cc(F)cc3F)cc2N(Cc2c(F)cc(OCCCC(=O)O)cc2F)C(=O)N1C [Example 294, (S)-4-(4-((3,4-dimethyl-2-oxo-7-((2,4,6-trifluorobenzyl)carbamoyl)-3,4-dihydroquinazolin-1(2H)-yl)methyl)-3,5-difluorophenoxy)butanoic acid]	< 1000	< 1000	–	–
CC(O)c1ccc(F)c(CN2C(=O)N(C)[C@@H](C)c3ccc(C(=O)NCc4c(F)cc(F)cc4F)cc32)c1F (stereo partly drawn) [Example 289, (4S)-1-(2,6-difluoro-3-(1-hydroxyethyl)benzyl)-3,4-dimethyl-2-oxo-N-(2,4,6-trifluorobenzyl)-1,2,3,4-tetrahydroquinazoline-7-carboxamide]	< 1000	1000 to 10000	–	–
C[C@H]1c2ccc(C(=O)NCc3c(F)cc(F)cc3F)cc2N(Cc2c(F)cc(OCCN)cc2Cl)C(=O)N1C [Example 299, (S)-1-(4-(2-aminoethoxy)-2-chloro-6-fluorobenzyl)-3,4-dimethyl-2-oxo-N-(2,4,6-trifluorobenzyl)-1,2,3,4-tetrahydroquinazoline-7-carboxamide hydrochloride]	< 1000	> 10000	–	–
C[C@H]1c2ccc(C(=O)NCc3c(F)cc(F)cc3F)cc2N(Cc2c(F)ccc(CO)c2F)C(=O)N1C [Example 269, (S)-1-(2,6-difluoro-3-(hydroxymethyl)benzyl)-3,4-dimethyl-2-oxo-N-(2,4,6-trifluorobenzyl)-1,2,3,4-tetrahydroquinazoline-7-carboxamide]	< 1000	< 1000	–	–
C[C@H]1c2ccc(C(=O)NCc3c(F)cc(F)cc3F)cc2N(Cc2c(F)cc(OCOP(=O)(O)O)cc2F)C(=O)N1C [Example 83, (S)-(4-((3,4-dimethyl-2-oxo-7-((2,4,6-trifluorobenzyl)carbamoyl)-3,4-dihydroquinazolin-1(2H)-yl)methyl)-3,5-difluorophenoxy)methyl dihydrogen phosphate]	< 1000	< 1000	–	–
C[C@H]1c2ccc(C(=O)NCc3c(F)cc(F)cc3F)cc2N(Cc2c(F)ccc(OCCCOP(=O)(O)O)c2Cl)C(=O)N1C [Example 96, (S)-3-(2-chloro-3-((3,4-dimethyl-2-oxo-7-((2,4,6-trifluorobenzyl)carbamoyl)-3,4-dihydroquinazolin-1(2H)-yl)methyl)-4-fluorophenoxy)propyl dihydrogen phosphate]	< 1000	> 10000	–	–
CC1c2ccc(C(=O)NCc3c(F)cc(F)cc3F)cc2N(Cc2c(F)cccc2C(F)(F)F)C(=O)N1C (stereo not drawn) [Example 209, 1-(2-fluoro-6-(trifluoromethyl)benzyl)-3,4-dimethyl-2-oxo-N-(2,4,6-trifluorobenzyl)-1,2,3,4-tetrahydroquinazoline-7-carboxamide]	< 1000	< 1000	–	–
